Converted amounts (≈) assume the structure as drawn.
Tests used:
[1] = Growth rate and feed efficiency of animals when included in the feed rations (statement); type: in vivo; conditions: in words
From the text: It is an embodiment of this invention to provide a method for promoting the growth of animals and improving their feed efficiency by administering to them a compound of this invention.
The method of administration of a compound of this invention is to incorporate it in the feed rations intended for the animal at a concentration of about 50-150 g/ton of feed, preferably about 100 g/ton. The animals are permitted to feed at liberty throughout the growth period. There are many specialized feed rations for different species of animals. The compounds of this invention can be used with any of the known rations.

[2] = Growth promotion and improved feed efficiency feeding test (rye diet); type: in vivo, male two-day-old broiler-type chicks; conditions: for Increase in feed efficiency / Increase in weight: over control group
Description: Growth promotion and improved feed efficiency were determined as follows:
Two groups of male two-day-old broiler-type chicks were placed into Petersime starter batteries and given feed and water ad libitum for the duration of each test. Each group was subdivided into six sub-groups with ten birds in each sub-group, thus providing sixty birds per group. One group received the basal feed ration, as given in Table 1 and served as a control. The other group receives the same ration, but in addition there was included P-2229 at a concentration of 100 g/ton. The basal ration was a rye diet which alters the microflora of the gut in the bird which results in a growth depressant effect. When a growth stimulant or promotant is added to the diet, the effect on the birds performance will be more apparent than if a corn base diet was used.
The test period was thirteen days. Individual live body weights and pen feed efficiencies were taken at 2 and 14 days of age.

Mycobacterium ranae = assay: Minimum inhibitory concentration, Mycobacterium ranae; type: cell-based
Candida albicans = assay: Minimum inhibitory concentration, Candida albicans; type: cell-based
Aspergillus niger = assay: Minimum inhibitory concentration, Aspergillus niger; type: cell-based
Aspergillus fumigatus = assay: Minimum inhibitory concentration, Aspergillus fumigatus; type: cell-based
[3] = tested on: Streptococcus hemolyticus; assay: Minimum inhibitory concentration, Streptococcus hemolyticus; type: cell-based; conditions: Streptococcus pyogenes
Shigella dysenteriae = assay: Minimum inhibitory concentration, Shigella dysenteriae; type: cell-based
Pseudomonas aeruginosa = assay: Minimum inhibitory concentration, Pseudomonas aeruginosa; type: cell-based
Pencillium sp. = assay: Minimum inhibitory concentration, Pencillium sp.; type: cell-based
Escherichia coli = assay: Minimum inhibitory concentration, Escherichia coli; type: cell-based
[4] = tested on: Pasteurella pseudotuberculosis; assay: microbe, parasite or virus in culture; type: cell-based; conditions: Yersinia pseudotuberculosis
Staphylococcus aureus = assay: Minimum inhibitory concentration, Staphylococcus aureus; type: cell-based
[5] = Table 1, 100 g/ton in feed, 13 days
[6] = Table 2, feed consumed to weight gained, control 1.56
[7] = Table 2, test of Example 1 repeated, control 208.77
[8] = Table 3, feed consumed to weight gained, control 1.82
[9] = when tested in feed rations, in words

Structure (SMILES): CCC(COC(C)=O)(C(OC(C)=O)c1c[n+]([O-])c2ccccc2[n+]1[O-])[N+](=O)[O-] (stereo not drawn) [Example 12, 2-(1-acetoxy-2-acetoxymethyl-2-nitrobutyl)quinoxaline-1,4-dioxide]
- feed efficiency ([1]; present-tense example): increases the feed efficiency
- growth rate ([1]; present-tense example): improves the growth rate

Structure (SMILES): CCCC(C(O)c1c[n+]([O-])c2ccccc2[n+]1[O-])[N+](=O)[O-] (stereo not drawn) [Example 13, 2-(1-hydroxy-2-nitropentyl)quinoxaline-1,4-dioxide]
- feed efficiency ([1]; present-tense example): increases the feed efficiency
- growth rate ([1]; present-tense example): improves the growth rate

Structure (SMILES): CCC(C)(C(O)c1c[n+]([O-])c2ccccc2[n+]1[O-])[N+](=O)[O-] (stereo not drawn) [Example 14, 2-(1-hydroxy-2-methyl-2-nitrobutyl)quinoxaline-1,4-dioxide]
- feed efficiency ([1]; present-tense example): increases the feed efficiency
- growth rate ([1]; present-tense example): improves the growth rate

Structure (SMILES): O=[N+]([O-])C1(C(O)c2c[n+]([O-])c3ccccc3[n+]2[O-])CCCCC1 (stereo not drawn) [Example 15, α-(1-nitrocyclohexyl)-2-quinoxalinemethanol-1,4-dioxide]
- feed efficiency ([1]; present-tense example): increases the feed efficiency
- growth rate ([1]; present-tense example): improves the growth rate

Structure (SMILES): CCCC(C(OC(C)=O)c1c[n+]([O-])c2ccccc2[n+]1[O-])[N+](=O)[O-] (stereo not drawn) [Example 16, 2-(1-acetoxy-2-nitropentyl)quinoxaline-1,4-dioxide]
- feed efficiency ([1]; present-tense example): increases the feed efficiency
- growth rate ([1]; present-tense example): improves the growth rate

Structure (SMILES): CCC(C)(C(OC(C)=O)c1c[n+]([O-])c2ccccc2[n+]1[O-])[N+](=O)[O-] (stereo not drawn) [Example 17, 2-(1-acetoxy-2-methyl-2-nitrobutyl)quinoxaline-1,4-dioxide]
- feed efficiency ([1]; present-tense example): increases the feed efficiency
- growth rate ([1]; present-tense example): improves the growth rate

Structure (SMILES): CC(=O)OC(c1c[n+]([O-])c2ccccc2[n+]1[O-])C1([N+](=O)[O-])CCCCC1 (stereo not drawn) [Example 18]
- feed efficiency ([1]; present-tense example): increases the feed efficiency
- growth rate ([1]; present-tense example): improves the growth rate

Structure (SMILES): COC(=O)C(C(O)c1c[n+]([O-])c2ccccc2[n+]1[O-])[N+](=O)[O-] (stereo not drawn) [Example P-2229, methyl-α-nitro-β-hydroxy-2-quinoxalinepropionate-1,4-dioxide]
- Body weight gain, av ([2]; Table 1, 100 g/ton in feed, 13 days, control 208.73): 218.75 g
- feed efficiency ([2]; Table 1, feed consumed to weight gained, control 1.49): 1.48
- Increase in feed efficiency [2, 5]: 0.7%
- Increase in weight [2, 5]: 4.8%

Structure (SMILES): CC(C(O)c1c[n+]([O-])c2ccccc2[n+]1[O-])[N+](=O)[O-] (stereo not drawn) [Example P-2230, 2-(1-hydroxy-2-nitropropyl)quinoxaline-1,4-dioxide]
- feed efficiency [2, 6]: 1.45
- Increase in feed efficiency ([2]; Table 2): 7.1
- Increase in weight ([2]; Table 2): 6.5%
- Body weight gain, av [2, 7]: 222.37 g

Structure (SMILES): O=[N+]([O-])CC(O)c1c[n+]([O-])c2ccccc2[n+]1[O-] (stereo not drawn) [Example P-2231, 2-(1-hydroxy-2-nitroethyl)-quinoxaline-1,4-dioxide]
- feed efficiency [2, 6]: 1.46
- Increase in feed efficiency ([2]; Table 2): 6.4
- Increase in weight ([2]; Table 2): 6.1%
- Body weight gain, av [2, 7]: 221.54 g

Structure (SMILES): COC(=O)C(C(OC(C)=O)c1c[n+]([O-])c2ccccc2[n+]1[O-])[N+](=O)[O-] (stereo not drawn) [Example P-2236]
- Body weight gain, av ([2]; Table 4, control 97.33): 154.92 g
- feed efficiency ([2]; Table 4, feed consumed to weight gained, control 1.84): 1.56
- Increase in feed efficiency ([2]; Table 4): 15.2
- Increase in weight ([2]; Table 4): 59.17%

Structure (SMILES): CC(=O)OC(c1c[n+]([O-])c2ccccc2[n+]1[O-])C(C)[N+](=O)[O-] (stereo not drawn) [Example P-2242, 2-(1-acetoxy-2-nitropropyl)quinoxaline-1,4-dioxide]
- Body weight gain, av ([2]; Table 5, control 165.7): 210.6 g
- feed efficiency ([2]; Table 5, feed consumed to weight gained, control 1.57): 1.48
- Increase in feed efficiency ([2]; Table 5): 5.7
- Increase in weight ([2]; Table 5): 27.1%

Structure (SMILES): CC(=O)OC(C[N+](=O)[O-])c1c[n+]([O-])c2ccccc2[n+]1[O-] (stereo not drawn) [Example P-2243, 2-(1-acetoxy-2-nitroethyl)quinoxaline-1,4-dioxide]
- Body weight gain, av ([2]; Table 6, control 144.7): 240.5 g
- feed efficiency ([2]; Table 6, feed consumed to weight gained, control 1.69): 1.48
- Increase in feed efficiency ([2]; Table 6): 12.4
- Increase in weight ([2]; Table 6): 66.2%

Structure (SMILES): CCC(C(O)c1c[n+]([O-])c2ccccc2[n+]1[O-])[N+](=O)[O-] (stereo not drawn) [Example P-2246, 2-(1-hydroxy-2-nitrobutyl)quinoxaline-1,4-dioxide]
- Body weight gain, av ([2]; Table 3, control 128.6): 194.7 g
- feed efficiency [2, 8]: 1.54
- Increase in feed efficiency ([2]; Table 3): 15.4
- Increase in weight ([2]; Table 3): 51.4%

Structure (SMILES): CC(C)(C(O)c1c[n+]([O-])c2ccccc2[n+]1[O-])[N+](=O)[O-] (stereo not drawn) [Example P-2265, 2-(1-hydroxy-2-methyl-2-nitropropyl)quinoxaline-1,4-dioxide]
- Body weight gain, av ([2]; Table 3, control 128.6): 188.7 g
- feed efficiency [2, 8]: 1.59
- Increase in feed efficiency ([2]; Table 3): 12.6
- Increase in weight ([2]; Table 3): 46.7%

Structure (SMILES): CCC(C(OC(C)=O)c1c[n+]([O-])c2ccccc2[n+]1[O-])[N+](=O)[O-] (stereo not drawn) [Example P-2277, 2-(1-acetoxy-2-nitrobutyl)quinoxaline-1,4-dioxide]
- feed efficiency [1]: increases the feed efficiency
- growth rate [1]: improves the growth rate

Structure (SMILES): CCC(CO)(C(O)c1c[n+]([O-])c2ccccc2[n+]1[O-])[N+](=O)[O-] (stereo not drawn) [Example P-2280, 2-(1-hydroxy-2-hydroxymethyl-2-nitrobutyl)quinoxaline-1,4-dioxide]
- MIC (Mycobacterium ranae): 50 to 100 µg/mL (≈ 162 to 323 µM)
- MIC (Candida albicans): 100 to 500 µg/mL (≈ 323 to 1620 µM)
- MIC (Aspergillus niger): 100 to 500 µg/mL (≈ 323 to 1620 µM)
- MIC (Aspergillus fumigatus): 500 to 1000 µg/mL (≈ 1620 to 3230 µM)
- MIC [3]: 500 to 1000 µg/mL (≈ 1620 to 3230 µM)
- MIC (Shigella dysenteriae): 500 to 1000 µg/mL (≈ 1620 to 3230 µM)
- MIC (Pseudomonas aeruginosa): 500 to 1000 µg/mL (≈ 1620 to 3230 µM)
- MIC (Pencillium sp.): 100 to 500 µg/mL (≈ 323 to 1620 µM)
- MIC (Escherichia coli): 100 to 500 µg/mL (≈ 323 to 1620 µM)
- MIC [4]: 50 to 100 µg/mL (≈ 162 to 323 µM)
- feed efficiency [2, 9]: improved efficiency
- growth rate [2, 9]: improved growth rate
- MIC (Staphylococcus aureus): 500 to 1000 µg/mL (≈ 1620 to 3230 µM)

Structure (SMILES): CC(=O)OC(c1c[n+]([O-])c2ccccc2[n+]1[O-])C(C)(C)[N+](=O)[O-] (stereo not drawn) [Example P-2284, 2-(1-acetoxy-2-methyl-2-nitropropyl)quinoxaline-1,4-dioxide]
- feed efficiency [1]: increases the feed efficiency
- growth rate [1]: improves the growth rate

Reference: patent US4303657A, “Nitrohydroxyalkyl-substituted quinoxaxiline dioxides and alkanoic acid esters thereof” (International Minerals & Chemical Corp., priority 1979, dated 1981)
